Measured values: US5274118A, “Process for preparing (2R)-methyl-4,4,4-trifluorobutylamine” (Imperial Chemical Industries PLC, priority 1990, dated 1993)

Columns and labels:
[1] = test system: leukotriene LTD4; assay: guinea-pig aerosol test (LTD4 aerosol challenge, onset of dyspnea); assay type: in vivo; conditions: guinea-pigs
Protocol: According to this procedure, guinea-pigs are pre-dosed with test compound as a solution in poly(ethylene glycol) (generally 1 hour) before an aerosol challenge of leukotriene LTD4 (starting with 2 ml of a 30 microgram/ml solution) and the effect of the test compound on the average time of leukotriene initiated change in breathing pattern (such as onset of dyspnea) recorded and compared with that in undosed, control guinea-pigs. Percent protection engendered by a test compound was calculated from the time delay to the onset of dyspnea compared to that for control animals.

[2] = biological target: T1, leukotrienes LTC4, LTD4 and/or LTE4 (Cavia porcellus, UniProt Q2NNR5); assay: receptor-ligand binding assay described by Aharony; conditions: typically determined
T1 construct: from tissue
T1 sequence (Q2NNR5 1-340): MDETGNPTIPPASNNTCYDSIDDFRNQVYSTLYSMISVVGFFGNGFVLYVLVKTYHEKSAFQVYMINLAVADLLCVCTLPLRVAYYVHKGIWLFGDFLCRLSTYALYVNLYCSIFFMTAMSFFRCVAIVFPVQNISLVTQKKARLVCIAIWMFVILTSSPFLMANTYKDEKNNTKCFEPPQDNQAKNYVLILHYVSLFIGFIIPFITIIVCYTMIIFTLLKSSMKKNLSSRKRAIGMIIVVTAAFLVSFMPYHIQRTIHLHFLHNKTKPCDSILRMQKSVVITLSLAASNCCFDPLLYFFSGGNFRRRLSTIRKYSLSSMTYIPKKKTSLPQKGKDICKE

Ki [2]: 0.398 nM
SMILES: COc1cc(C(=O)NS(=O)(=O)c2ccccc2C)ccc1Cc1cn(C)c2ccc(C(=O)NC[C@H](C)CC(F)(F)F)cc12 [compound of formula I substantially in the form of the (R)-enantiomer, (R)-3-Methoxy-4-[1-methyl-5-(2-methyl-4,4,4-trifluorobutylcarbamoyl)indol-3-ylmethyl]-N-(2-methylphenylsulfonyl)benzamide]
ED50 ([1]; Cavia porcellus, oral administration, pre-dosed generally 1 hour before LTD4 aerosol challenge, read-out: ED50 (protection against LTD4-induced dyspnea)): 1.1 µmol/kg
untoward side-effects ([1]; oral, at several multiples of the minimum effective dose): without any indication of untoward side-effects
